In brackets after ≈: the same amount, converted by molar mass. Where two headings read alike, the source gives them in different places.
Experiments:
[1] = system: Klebsiella pneumoniae strain MS6771; experiment: MIC by broth microdilution (CLSI); assay type: cell-based; details: for MIC: Klebsiella pneumoniae; for antibiotic sensitivity of resistant strain: Klebsiella pneumoniae MS6771, addition of sub-inhibitory PBT2+zinc(II) ions
[2] = system: Streptococcus pneumoniae 23F; experiment: MIC by broth microdilution (CLSI); assay type: cell-based
[3] = system: GAS strain HKU16 (Streptococcus pyogenes strain HKU16); experiment: microbe, parasite or virus in culture; assay type: cell-based; details: Streptococcus pyogenes; GAS; RA-HQ-12: 0 μM, Zn: 0 μM; read-out: MIC
Protocol: (§1) J. Path. Bact. […] Proc. Soc.
(§2) MIC assays were carried out in biological triplicates.
(§3) M100 Performance Standards for Antimicrobial Susceptibility Testing, 27th Edition.

[4] = system: Vancomycin-resistant Enterococci (VRE) clinical isolate RBWH1; experiment: MIC by broth microdilution (CLSI); assay type: cell-based, Enterococcus; details: Enterococcus, VRE, read-out: MIC
Protocol: as §1, §2, §3

[5] = system: Methicillin-resistant Staphylococcus aureus (MRSA) strain USA300; experiment: MIC by broth microdilution (CLSI); details: Staphylococcus aureus
[6] = MS6771, Klebsiella pneumoniae, CQ: 0 μM, Zinc: 0 μM, read-out: MIC
[7] = MS6771, Klebsiella pneumoniae, CQ: 64 μM, Zinc: 256 μM, read-out: MIC
[8] = MS6771, Klebsiella pneumoniae, CQ: 64 μM, read-out: MIC
[9] = MS6771, Klebsiella pneumoniae, PBT2: 0 μM, Zinc: 0 μM, read-out: MIC
[10] = MS6771, Klebsiella pneumoniae, PBT2: 64 μM, Zinc: 256 μM, read-out: MIC
[11] = MS6771, Klebsiella pneumoniae, PBT2: 64 μM, read-out: MIC
[12] = MS6771, Klebsiella pneumoniae, Zinc: 256 μM (CQ panel), read-out: MIC
[13] = MS6771, Klebsiella pneumoniae, Zinc: 256 μM (PBT2 panel), read-out: MIC

**Q.** Which MIC [1, 6] does the source give for `O=C(N[C@H](CO)[C@H](O)c1ccc([N+](=O)[O-])cc1)C(Cl)Cl` [Chloramphenicol, chloramphenicol] here?
**A.** The MIC was 128 µg/mL (≈ 396 µM).

**Q.** And the MIC [1, 7]?
**A.** The MIC was 64 µg/mL (≈ 198 µM).

**Q.** And the MIC [1, 8]?
**A.** Its MIC is 64 µg/mL (≈ 198 µM).

**Q.** What about the MIC [1, 9] of the same compound?
**A.** Its MIC is 128 µg/mL (≈ 396 µM).

**Q.** What about the MIC [1, 10] of the same compound?
**A.** The MIC was 128 µg/mL (≈ 396 µM).

**Q.** And the MIC [1, 11]?
**A.** The MIC was 128 µg/mL (≈ 396 µM).

**Q.** What about the MIC [1, 12] of the same compound?
**A.** The MIC was 128 µg/mL (≈ 396 µM).

**Q.** And the MIC [1, 13]?
**A.** The MIC was 128 µg/mL (≈ 396 µM).

**Q.** And the MIC ([2]; Streptococcus pneumoniae, 23F, PBT2: 0 μM, Zinc: 0 μM, read-out: MIC)?
**A.** The MIC was 16 µg/mL (≈ 49.5 µM).

**Q.** What about the MIC ([2]; Streptococcus pneumoniae, 23F, PBT2: 8 μM, Zinc: 32 μM, read-out: MIC) of the same compound?
**A.** The MIC was 2 µg/mL (≈ 6.19 µM).

**Q.** And the MIC ([2]; Streptococcus pneumoniae, 23F, PBT2: 8 μM, read-out: MIC)?
**A.** Its MIC is 16 µg/mL (≈ 49.5 µM).

**Q.** What about the MIC ([2]; Streptococcus pneumoniae, 23F, Zinc: 32 μM, read-out: MIC) of the same compound?
**A.** The MIC was 16 µg/mL (≈ 49.5 µM).

**Q.** And the “antibiotic sensitivity of resistant strain” value ([2]; addition of sub-inhibitory PBT2+zinc(II) ions)?
**A.** The value was “became sensitive”.

**Q.** What does the source list for `CCO/N=C(\C(=O)N[C@@H]1C(=O)N2C(C(=O)[O-])=C(Sc3nc(-c4cc[n+](C)cc4)cs3)CS[C@H]12)c1nsc(N)n1` [Ceftaroline]?
**A.** MIC [1, 6]: > 128 µg/mL; MIC [1, 7]: > 128 µg/mL; MIC [1, 8]: > 128 µg/mL; MIC [1, 9]: > 128 µg/mL; MIC [1, 10]: > 128 µg/mL; MIC [1, 11]: > 128 µg/mL; MIC [1, 12]: > 128 µg/mL; MIC [1, 13]: > 128 µg/mL

**Q.** Which results are given for `CN(C)c1cc(NC(=O)CNC(C)(C)C)c(O)c2c1C[C@H]1C[C@H]3[C@H](N(C)C)C(O)=C(C(N)=O)C(=O)[C@@]3(O)C(O)=C1C2=O` [Tigecycline, tigecycline]?
**A.** antibiotic sensitivity of resistant strain [1]: became sensitive; MIC ([1]; MS6771, Klebsiella pneumoniae, CQ: 0 μM, Zinc: 0 μM): 4 µg/mL (≈ 6.83 µM); MIC ([1]; MS6771, Klebsiella pneumoniae, CQ: 64 μM): 4 µg/mL (≈ 6.83 µM); MIC ([1]; MS6771, Klebsiella pneumoniae, CQ: 64 μM, Zinc: 256 μM): 4 µg/mL (≈ 6.83 µM); MIC ([1]; MS6771, Klebsiella pneumoniae, PBT2: 0 μM, Zinc: 0 μM): 4 µg/mL (≈ 6.83 µM); MIC ([1]; MS6771, Klebsiella pneumoniae, PBT2: 64 μM): 2 µg/mL (≈ 3.41 µM); MIC ([1]; MS6771, Klebsiella pneumoniae, PBT2: 64 μM, Zinc: 256 μM): 2 µg/mL (≈ 3.41 µM); MIC ([1]; MS6771, Klebsiella pneumoniae, Zinc: 256 μM (CQ panel)): 4 µg/mL (≈ 6.83 µM); MIC ([1]; MS6771, Klebsiella pneumoniae, Zinc: 256 μM (PBT2 panel)): 4 µg/mL (≈ 6.83 µM)

**Q.** `NCC[C@H](O)C(=O)N[C@@H]1C[C@H](N)[C@@H](O[C@H]2O[C@H](CN)[C@@H](O)[C@H](O)[C@H]2O)[C@H](O)[C@H]1O[C@H]1O[C@H](CO)[C@@H](O)[C@H](N)[C@H]1O` [Amikacin, amikacin] was tested. Which “antibiotic sensitivity of resistant strain” value [1] did it give?
**A.** Its value is “not”.

**Q.** What about the MIC [1, 6] of the same compound?
**A.** Its MIC is greater than 128 µg/mL.

**Q.** And the MIC [1, 7]?
**A.** The MIC was greater than 128 µg/mL.

**Q.** What about the MIC [1, 8] of the same compound?
**A.** Its MIC is greater than 128 µg/mL.

**Q.** And the MIC [1, 9]?
**A.** The MIC was greater than 128 µg/mL.

**Q.** And the MIC [1, 10]?
**A.** Its MIC is greater than 128 µg/mL.

**Q.** What about the MIC [1, 11] of the same compound?
**A.** Its MIC is greater than 128 µg/mL.

**Q.** And the MIC [1, 12]?
**A.** The MIC was greater than 128 µg/mL.

**Q.** And the MIC [1, 13]?
**A.** Its MIC is greater than 128 µg/mL.

**Q.** With `CO[C@@]1(NC(=O)Cc2cccs2)C(=O)N2C(C(=O)O)=C(COC(N)=O)CS[C@@H]21` [Cefoxitin, cefoxitin] as the compound, how does the MIC [1, 6] read?
**A.** The MIC was 128 µg/mL (≈ 299 µM).

**Q.** What about the MIC [1, 7] of the same compound?
**A.** Its MIC is 64 µg/mL (≈ 150 µM).

**Q.** And the MIC [1, 8]?
**A.** The MIC was 64 µg/mL (≈ 150 µM).

**Q.** What about the MIC [1, 9] of the same compound?
**A.** The MIC was 128 µg/mL (≈ 299 µM).

**Q.** What about the MIC [1, 10] of the same compound?
**A.** Its MIC is 64 µg/mL (≈ 150 µM).

**Q.** What about the MIC [1, 11] of the same compound?
**A.** Its MIC is 64 µg/mL (≈ 150 µM).

**Q.** What about the MIC [1, 12] of the same compound?
**A.** Its MIC is 128 µg/mL (≈ 299 µM).

**Q.** What about the MIC [1, 13] of the same compound?
**A.** Its MIC is 128 µg/mL (≈ 299 µM).

**Q.** How did the MIC [1, 6] turn out when `CC(C)(O/N=C(\C(=O)N[C@@H]1C(=O)N2C(C(=O)[O-])=C(C[n+]3ccccc3)CS[C@H]12)c1csc(N)n1)C(=O)O` [Ceftazidime, ceftazidime] was run?
**A.** The MIC was 32 µg/mL (≈ 58.5 µM).

**Q.** What about the MIC [1, 7] of the same compound?
**A.** The MIC was 16 µg/mL (≈ 29.3 µM).

**Q.** And the MIC [1, 8]?
**A.** Its MIC is 16 µg/mL (≈ 29.3 µM).

**Q.** And the MIC [1, 9]?
**A.** Its MIC is 32 µg/mL (≈ 58.5 µM).

**Q.** And the MIC [1, 10]?
**A.** Its MIC is 32 µg/mL (≈ 58.5 µM).

**Q.** What about the MIC [1, 11] of the same compound?
**A.** The MIC was 32 µg/mL (≈ 58.5 µM).

**Q.** And the MIC [1, 12]?
**A.** Its MIC is 32 µg/mL (≈ 58.5 µM).

**Q.** And the MIC [1, 13]?
**A.** The MIC was 32 µg/mL (≈ 58.5 µM).

**Q.** Which MIC ([2]; PBT2: 0 μM, Zinc: 0 μM) does the source give for gentamicin here?
**A.** The MIC was 64 µg/mL.

**Q.** And the MIC ([2]; PBT2: 8 μM)?
**A.** Its MIC is 4 µg/mL.

**Q.** And the MIC ([2]; PBT2: 8 μM, Zinc: 32 μM)?
**A.** The MIC was 1 µg/mL.

**Q.** And the MIC ([2]; Zinc: 32 μM)?
**A.** Its MIC is 64 µg/mL.

**Q.** For `CC[C@H]1OC(=O)[C@H](C)[C@@H](O[C@H]2C[C@@](C)(OC)[C@@H](O)[C@H](C)O2)[C@H](C)[C@@H](O[C@@H]2O[C@H](C)C[C@H](N(C)C)[C@H]2O)[C@](C)(O)C[C@@H](C)CN(C)[C@H](C)[C@@H](O)[C@]1(C)O` [Azithromycin, azithromycin], which MIC [3] is on record?
**A.** Its MIC is greater than 128 µg/mL.

**Q.** What about the MIC ([4]; RA-HQ-12: 3.5 μM, Zn: […]) of the same compound?
**A.** The MIC was greater than 128 µg/mL.

**Q.** And the MIC ([4]; RA-HQ-12: 3.5 μM)?
**A.** The MIC was greater than 128 µg/mL.

**Q.** And the MIC ([4]; Zn: […] (RA-HQ-12 panel))?
**A.** The MIC was greater than 128 µg/mL.

**Q.** What about the MIC ([4]; RA-HQ-12: 0 μM, Zn: 0 μM) of the same compound?
**A.** The MIC was greater than 128 µg/mL.

**Q.** What about the MIC [5] of the same compound?
**A.** The MIC was 128 µg/mL (≈ 171 µM).

**Q.** What about the MIC ([5]; MRSA|USA300, MRSA, RA-HQ-12: 3.5 μM, Zn: […], oxacillin with 2% NaCl) of the same compound?
**A.** Its MIC is 32 µg/mL (≈ 42.7 µM).

**Q.** What about the MIC ([5]; MRSA|USA300, MRSA, RA-HQ-12: 3.5 μM, oxacillin with 2% NaCl) of the same compound?
**A.** The MIC was 64 µg/mL (≈ 85.4 µM).

**Q.** And the MIC ([1]; MS6771, K. pneumoniae, RA-HQ-12: 0 μM, Zn: 0 μM, read-out: MIC)?
**A.** Its MIC is 32 µg/mL (≈ 42.7 µM).

**Q.** And the MIC ([1]; MS6771, K. pneumoniae, RA-HQ-12: 16 μM, Zn: 64 μM, read-out: MIC)?
**A.** The MIC was 32 µg/mL (≈ 42.7 µM).

**Q.** What about the MIC ([1]; MS6771, K. pneumoniae, RA-HQ-12: 16 μM, read-out: MIC) of the same compound?
**A.** The MIC was 32 µg/mL (≈ 42.7 µM).

**Q.** And the MIC ([1]; MS6771, K. pneumoniae, Zn: 64 μM, read-out: MIC)?
**A.** Its MIC is 32 µg/mL (≈ 42.7 µM).
